Columns and labels:
[1] = Salting in: solubility in absolute ethanol with and without egg phosphatidylcholine; format: physicochemical; details: for salting in / form of apparent solubility / increase in solubility or apparent solubility (co-solubilizing or salting-in): lipid in lipid solvent
Experimental: To determine whether phospholipids can increase the solubility or apparent solubility of a pharmacological agent such as salicylic acid acetate, both drug and lipid were co-solubilized in a lipid solvent such as absolute ethanol (USP). Five ml of this lipid solvent was able to dissolve about a maximum of 1 gr. salicylic acid acetate. A lipid such as egg phosphatidylcholine was completely dissolved in 5 ml of ethanol in a series of test tubes and to this solution crystals of the test pharmacological agent salicylic acid acetate were added gradually and dissolved. […] Any convenient temperature and pressur may be used for this procedure that will dot adversely affect the pharmacological agent or boil the lipid solvent.
Five ml of absolute ethanol was able to dissolve maximum 1 gr. salicylic acid acetate. Egg phosphatidylcholine (Hepar) 1.5 gm was completely dissolved in 5 ml of ethanol in a series of test tubes and to this solution crystals of salicylic acid acetate were added gradually and dissolved. […] To accelerate the dissolving process all test tubes containing crystals of salicylic acid acetate and lipid solvent were agitated gently in a water bath of 40° C. and cooled to about 22.5° C.+/- about 2.5° C. after crystals were completely dissolved.

[2] = Stability of agent to water (hydrolysis) in ethanol; format: physicochemical; details: water even at about 5% in ethanol

Row | increase in solubility of drug (salting in) ([1]; egg phosphatidylcholine ethanol versus ethanol) | SMILES | salting in / form of apparent solubility [1] | salting in / form of apparent solubility ([1]; listed as Amphoteracin B) | increase in solubility or apparent solubility (co-solubilizing or salting-in) [1] [%] | maximum amount dissolved in absolute ethanol [1] [gr.] | tolerance of water (hydrolysis) [2]
1 |  | C[C@@H]1[C@H](O)[C@@H](C)/C=C/C=C/C=C/C=C/C=C/C=C/C=C/[C@H](O[C@@H]2O[C@H](C)[C@@H](O)[C@H](N)[C@@H]2O)C[C@@H]2O[C@](O)(C[C@@H](O)C[C@@H](O)[C@H](O)CC[C@@H](O)C[C@@H](O)CC(=O)O[C@H]1C)C[C@H](O)[C@H]2C(=O)O [amphotericin B] | in the form of a complex with dissolved lipid rather than truly solubilized | similarly salted in but appears to do so in the form of complexes with lipid rather than simple solubilizing |  |  | 
2 | about 50% | COc1ccc2c(c1)c(CC(=O)O)c(C)n2C(=O)c1ccc(Cl)cc1 [indomethacin] |  |  | ≤ 50 |  | 
3 |  | CC(=O)Oc1ccccc1C(=O)O [salicylic acid acetate] |  |  | ≤ 50 | ~1 | do not tolerate the presence of water even at about 5% in ethanol
